Laboratory results published in the NIST ThermoML archive (doi:10.1016/j.jct.2015.12.028).
Numbers after ± are expanded uncertainties.

Conditions: Liquid, light scattering

CCCCCCCC(=O)OCC [ethyl octanoate]
Conditions	speed of sound [m/s]
293.25 K, 100 kPa	1281 ± 13
293.65 K, 1000 kPa	1284 ± 13
293.67 K, 2510 kPa	1290.6 ± 13
293.69 K, 4020 kPa	1296.8 ± 13
293.72 K, 5520 kPa	1301 ± 13
293.75 K, 6980 kPa	1307.1 ± 13
293.77 K, 8490 kPa	1313.5 ± 13
293.77 K, 10010 kPa	1325.8 ± 13
303.05 K, 100 kPa	1245.9 ± 12
303.08 K, 8480 kPa	1288.6 ± 13
303.13 K, 7040 kPa	1280.7 ± 13
303.14 K, 3980 kPa	1263.7 ± 13
303.15 K, 1030 kPa	1249.1 ± 13
303.15 K, 2510 kPa	1257.8 ± 13
303.15 K, 5520 kPa	1273.7 ± 13
303.18 K, 10000 kPa	1295.5 ± 13
313.07 K, 100 kPa	1211 ± 12
313.15 K, 1000 kPa	1214.2 ± 12
313.28 K, 9990 kPa	1263.2 ± 13
313.38 K, 8530 kPa	1257.4 ± 13
313.39 K, 5500 kPa	1240.3 ± 12
313.4 K, 2510 kPa	1223.2 ± 12
313.4 K, 4060 kPa	1230.6 ± 12
313.41 K, 6980 kPa	1249.6 ± 13
322.88 K, 100 kPa	1176.3 ± 12
323.19 K, 8540 kPa	1227.3 ± 12
323.29 K, 10100 kPa	1231.2 ± 12
323.33 K, 1200 kPa	1185.7 ± 12
323.35 K, 2490 kPa	1190.8 ± 12
323.35 K, 3970 kPa	1197.8 ± 12
323.35 K, 5510 kPa	1205.3 ± 12
323.35 K, 7060 kPa	1215 ± 12
332.39 K, 9980 kPa	1202.3 ± 12
332.49 K, 8520 kPa	1194.3 ± 12
332.64 K, 7040 kPa	1183.5 ± 12
332.65 K, 5510 kPa	1175.2 ± 12
332.67 K, 2480 kPa	1158.3 ± 12
332.67 K, 4030 kPa	1167.5 ± 12
332.68 K, 980 kPa	1149.1 ± 12
333 K, 100 kPa	1141.8 ± 11
342.6 K, 890 kPa	1113.2 ± 11
342.61 K, 4000 kPa	1133.9 ± 11
342.64 K, 2530 kPa	1124.1 ± 11
342.71 K, 5490 kPa	1142.7 ± 11
342.74 K, 8510 kPa	1163.8 ± 12
342.77 K, 6990 kPa	1152.8 ± 12
342.94 K, 9970 kPa	1168.8 ± 12
343.12 K, 100 kPa	1107.4 ± 11
352.36 K, 100 kPa	1073.3 ± 11
353.44 K, 10120 kPa	1135.6 ± 11
353.54 K, 2480 kPa	1088 ± 11
353.54 K, 6990 kPa	1116 ± 11
353.54 K, 8520 kPa	1129.3 ± 11
353.56 K, 1030 kPa	1080.3 ± 11
353.58 K, 5480 kPa	1103.2 ± 11
353.6 K, 4000 kPa	1096.3 ± 11
363.16 K, 8500 kPa	1095.2 ± 11
363.19 K, 100 kPa	1039.3 ± 10
363.19 K, 1070 kPa	1047.2 ± 11
363.19 K, 7030 kPa	1083.1 ± 11
363.21 K, 2520 kPa	1053.8 ± 11
363.21 K, 4080 kPa	1062 ± 11
363.21 K, 5520 kPa	1071.3 ± 11
363.26 K, 10030 kPa	1104.7 ± 11
372.7 K, 2510 kPa	1022.9 ± 10
372.73 K, 3980 kPa	1033.3 ± 10
372.75 K, 8570 kPa	1067.6 ± 11
372.79 K, 100 kPa	1005.6 ± 10
372.79 K, 1040 kPa	1013.2 ± 10
372.82 K, 5530 kPa	1046.7 ± 11
372.82 K, 6960 kPa	1055.2 ± 11
372.95 K, 10040 kPa	1074.2 ± 11
382.73 K, 7000 kPa	1020.4 ± 10
382.8 K, 5550 kPa	1012.8 ± 10
382.82 K, 4060 kPa	998.99 ± 10
382.9 K, 2540 kPa	988.47 ± 9.9
382.95 K, 100 kPa	972.04 ± 9.8
382.95 K, 1050 kPa	980.18 ± 9.9
383.03 K, 8530 kPa	1028.1 ± 10
383.13 K, 9970 kPa	1042.4 ± 10
391.81 K, 8490 kPa	1002.4 ± 10
391.91 K, 9990 kPa	1015 ± 10
392.15 K, 7010 kPa	991.89 ± 10
392.29 K, 5490 kPa	982.56 ± 9.9
392.32 K, 100 kPa	938.67 ± 9.4
392.32 K, 1010 kPa	945.16 ± 9.5
392.33 K, 2550 kPa	958.2 ± 9.6
392.33 K, 4070 kPa	971.34 ± 9.8
402.89 K, 4000 kPa	940.63 ± 9.5
402.9 K, 7020 kPa	959.16 ± 9.7
402.91 K, 100 kPa	905.5 ± 9.1
402.91 K, 1000 kPa	915.87 ± 9.2
402.91 K, 2490 kPa	928.04 ± 9.3
402.91 K, 8480 kPa	970.85 ± 9.8
402.92 K, 10030 kPa	980.74 ± 9.9
402.93 K, 5470 kPa	948.7 ± 9.6
412.66 K, 8500 kPa	941.83 ± 9.5
412.76 K, 10040 kPa	953.27 ± 9.6
412.87 K, 7050 kPa	922.57 ± 9.3
413.17 K, 5530 kPa	910.63 ± 9.2
413.21 K, 100 kPa	872.52 ± 8.8
413.21 K, 1080 kPa	878.09 ± 8.8
413.21 K, 4060 kPa	901.97 ± 9.1
413.22 K, 2570 kPa	890.98 ± 9
423.24 K, 8520 kPa	908.5 ± 9.2
423.29 K, 7010 kPa	892.99 ± 9
423.3 K, 5530 kPa	882.56 ± 8.9
423.31 K, 2520 kPa	857.92 ± 8.6
423.32 K, 100 kPa	839.73 ± 8.5
423.32 K, 1150 kPa	848.64 ± 8.6
423.44 K, 10060 kPa	919.28 ± 9.3
423.53 K, 4090 kPa	870.32 ± 8.8
432.95 K, 5520 kPa	847.49 ± 8.6
432.96 K, 8480 kPa	875.16 ± 8.8
433.06 K, 10010 kPa	888.66 ± 9
433.09 K, 7010 kPa	859.4 ± 8.7
433.41 K, 2490 kPa	823.86 ± 8.3
433.44 K, 100 kPa	807.14 ± 8.1
433.44 K, 1010 kPa	813.1 ± 8.2
433.84 K, 4510 kPa	835.67 ± 8.4
442.69 K, 8510 kPa	841.83 ± 8.5
442.9 K, 7010 kPa	829.81 ± 8.4
442.99 K, 10020 kPa	857.21 ± 8.7
443.15 K, 5510 kPa	817.42 ± 8.2
443.16 K, 3990 kPa	805.02 ± 8.1
443.51 K, 2510 kPa	790.8 ± 8
443.55 K, 100 kPa	774.74 ± 7.8
443.55 K, 990 kPa	780.57 ± 7.9
452.41 K, 8480 kPa	813.49 ± 8.2
452.7 K, 7010 kPa	798.22 ± 8.1
453.15 K, 5520 kPa	789.35 ± 8
453.41 K, 10010 kPa	826.34 ± 8.3
453.47 K, 4510 kPa	776.37 ± 7.8
453.61 K, 2490 kPa	762.74 ± 7.7
453.66 K, 100 kPa	742.53 ± 7.5
453.66 K, 1010 kPa	749.03 ± 7.6
462.5 K, 7010 kPa	772.63 ± 7.8
463.14 K, 8480 kPa	783.19 ± 7.9
463.15 K, 5520 kPa	760.28 ± 7.7
463.24 K, 10010 kPa	795.41 ± 8
463.71 K, 2490 kPa	730.68 ± 7.4
463.78 K, 100 kPa	710.51 ± 7.2
463.78 K, 1010 kPa	715.5 ± 7.2
463.79 K, 4510 kPa	744.72 ± 7.5
472.07 K, 8500 kPa	760.99 ± 7.7
472.09 K, 1040 kPa	688.23 ± 7
472.09 K, 6960 kPa	745.31 ± 7.5
472.11 K, 2530 kPa	704.34 ± 7.1
472.14 K, 5460 kPa	730.7 ± 7.4
472.15 K, 4000 kPa	718.2 ± 7.3
472.17 K, 10000 kPa	773.29 ± 7.8
473.09 K, 100 kPa	678.69 ± 6.9

Conditions	speed of sound [m/s]
293.73 K	1275.7 ± 13
302.98 K	1243 ± 12
313.53 K	1206.1 ± 12
323.27 K	1173.1 ± 12
332.65 K	1138.5 ± 11
343.2 K	1103.8 ± 11
352.53 K	1069.9 ± 11
363.28 K	1035.2 ± 10
372.96 K	1001.9 ± 10
383 K	969.3 ± 9.7
392.03 K	936.3 ± 9.4
403.14 K	901.4 ± 9.1
413.12 K	869.5 ± 8.8
423.11 K	835.7 ± 8.4
433.2 K	801.1 ± 8.1
443.05 K	770.7 ± 7.8
453.11 K	738.5 ± 7.5
463.17 K	705.5 ± 7.1
472.16 K	675 ± 6.8
